{"source": "paper PMC5361737", "about": "“Potent and Selective KDM5 Inhibitor Stops Cellular Demethylation of H3K4me3 at Transcription Start Sites and Proliferation of MM1S Myeloma Cells” (Cell Chemical Biology, 2017)", "key": {"[1]": {"system": "Cl- channel (GABA-gated)", "test": "Cerep Express Panel, antagonist radioligand", "format": "binding"}, "[2]": {"test": "Liver microsomes stability", "format": "in vitro ADME", "conditions": "mouse liver microsomes"}, "[3]": {"target": "M2 (h) (Homo sapiens, UniProt P08172)", "sequence (P08172 whole entry)": "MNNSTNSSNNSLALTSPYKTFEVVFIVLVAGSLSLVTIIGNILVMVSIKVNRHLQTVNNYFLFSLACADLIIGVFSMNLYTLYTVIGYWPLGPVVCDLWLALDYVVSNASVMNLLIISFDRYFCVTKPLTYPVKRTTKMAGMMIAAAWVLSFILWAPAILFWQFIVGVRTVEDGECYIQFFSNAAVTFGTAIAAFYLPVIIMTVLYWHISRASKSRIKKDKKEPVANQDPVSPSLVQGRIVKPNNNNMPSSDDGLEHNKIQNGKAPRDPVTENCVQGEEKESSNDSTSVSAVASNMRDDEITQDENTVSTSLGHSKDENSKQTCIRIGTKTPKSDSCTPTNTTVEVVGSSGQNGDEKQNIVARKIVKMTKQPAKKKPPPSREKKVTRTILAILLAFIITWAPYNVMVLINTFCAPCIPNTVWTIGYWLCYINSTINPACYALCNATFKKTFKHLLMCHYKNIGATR", "test": "Cerep Express Panel, antagonist radioligand", "format": "binding", "conditions": "read-out: % Inhibition of reference (10 µM)"}, "[4]": {"target": "H1 (h) (Homo sapiens, UniProt P35367)", "sequence (P35367 whole entry)": "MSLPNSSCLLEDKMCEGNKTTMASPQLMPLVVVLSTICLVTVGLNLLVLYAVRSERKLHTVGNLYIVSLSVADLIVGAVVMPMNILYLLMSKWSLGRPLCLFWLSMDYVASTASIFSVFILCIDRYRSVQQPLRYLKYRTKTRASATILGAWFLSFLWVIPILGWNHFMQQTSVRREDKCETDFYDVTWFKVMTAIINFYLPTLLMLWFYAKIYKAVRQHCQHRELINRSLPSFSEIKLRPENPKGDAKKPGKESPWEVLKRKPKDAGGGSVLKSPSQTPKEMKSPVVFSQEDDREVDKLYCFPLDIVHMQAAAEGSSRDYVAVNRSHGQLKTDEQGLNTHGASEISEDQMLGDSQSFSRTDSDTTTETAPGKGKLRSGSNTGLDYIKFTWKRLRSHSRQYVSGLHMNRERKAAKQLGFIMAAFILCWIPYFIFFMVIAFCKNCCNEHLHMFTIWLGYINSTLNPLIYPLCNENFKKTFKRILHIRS", "test": "Cerep Express Panel, antagonist radioligand", "format": "binding", "conditions": "read-out: % Inhibition of reference (10 µM)"}, "[5]": {"target": "T1, CCR1 (h) (Homo sapiens, UniProt P32246)", "T1 sequence (P32246 1-355)": "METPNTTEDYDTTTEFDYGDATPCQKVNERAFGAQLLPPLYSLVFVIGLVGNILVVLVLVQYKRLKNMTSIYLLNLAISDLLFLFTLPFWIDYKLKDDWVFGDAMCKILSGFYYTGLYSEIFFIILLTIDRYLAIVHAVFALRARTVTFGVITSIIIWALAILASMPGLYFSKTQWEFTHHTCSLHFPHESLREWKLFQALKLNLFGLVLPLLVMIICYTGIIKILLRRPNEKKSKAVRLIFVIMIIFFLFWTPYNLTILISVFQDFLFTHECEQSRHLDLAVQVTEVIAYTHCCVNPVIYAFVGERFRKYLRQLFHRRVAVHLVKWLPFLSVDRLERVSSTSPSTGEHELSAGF", "test": "Cerep Express Panel, agonist radioligand", "format": "binding", "conditions": "read-out: % Inhibition of reference (10 µM)"}, "[6]": {"target": "D1 (h) (Homo sapiens, UniProt P21728)", "sequence (P21728 whole entry)": "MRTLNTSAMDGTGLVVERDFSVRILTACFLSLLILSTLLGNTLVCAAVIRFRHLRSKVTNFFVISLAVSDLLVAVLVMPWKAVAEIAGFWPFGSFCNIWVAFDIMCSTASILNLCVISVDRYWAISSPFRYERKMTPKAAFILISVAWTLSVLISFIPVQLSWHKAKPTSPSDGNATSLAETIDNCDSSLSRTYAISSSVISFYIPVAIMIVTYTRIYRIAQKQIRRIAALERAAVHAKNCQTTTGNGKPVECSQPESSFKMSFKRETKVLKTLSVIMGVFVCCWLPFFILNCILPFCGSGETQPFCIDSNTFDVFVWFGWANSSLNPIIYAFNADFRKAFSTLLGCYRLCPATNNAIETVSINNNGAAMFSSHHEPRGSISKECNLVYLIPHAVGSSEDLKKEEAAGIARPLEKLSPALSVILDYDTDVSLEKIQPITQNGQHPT", "test": "Cerep Express Panel, antagonist radioligand", "format": "binding", "conditions": "read-out: % Inhibition of reference (10 µM)"}, "[7]": {"system": "other 2-OG oxygenases", "test": "Selectivity panel, other 2-OG oxygenases (AlphaScreen or MALDI-TOF)", "format": "biochemical", "conditions": "AlphaScreen or MALDI-TOF enzymatic assays; read-out: no inhibition below (any of the other 2-OG oxygenases)"}, "[8]": {"target": "PHF8 (Homo sapiens, UniProt Q9UPP1)", "sequence (Q9UPP1 whole entry, species assumed)": "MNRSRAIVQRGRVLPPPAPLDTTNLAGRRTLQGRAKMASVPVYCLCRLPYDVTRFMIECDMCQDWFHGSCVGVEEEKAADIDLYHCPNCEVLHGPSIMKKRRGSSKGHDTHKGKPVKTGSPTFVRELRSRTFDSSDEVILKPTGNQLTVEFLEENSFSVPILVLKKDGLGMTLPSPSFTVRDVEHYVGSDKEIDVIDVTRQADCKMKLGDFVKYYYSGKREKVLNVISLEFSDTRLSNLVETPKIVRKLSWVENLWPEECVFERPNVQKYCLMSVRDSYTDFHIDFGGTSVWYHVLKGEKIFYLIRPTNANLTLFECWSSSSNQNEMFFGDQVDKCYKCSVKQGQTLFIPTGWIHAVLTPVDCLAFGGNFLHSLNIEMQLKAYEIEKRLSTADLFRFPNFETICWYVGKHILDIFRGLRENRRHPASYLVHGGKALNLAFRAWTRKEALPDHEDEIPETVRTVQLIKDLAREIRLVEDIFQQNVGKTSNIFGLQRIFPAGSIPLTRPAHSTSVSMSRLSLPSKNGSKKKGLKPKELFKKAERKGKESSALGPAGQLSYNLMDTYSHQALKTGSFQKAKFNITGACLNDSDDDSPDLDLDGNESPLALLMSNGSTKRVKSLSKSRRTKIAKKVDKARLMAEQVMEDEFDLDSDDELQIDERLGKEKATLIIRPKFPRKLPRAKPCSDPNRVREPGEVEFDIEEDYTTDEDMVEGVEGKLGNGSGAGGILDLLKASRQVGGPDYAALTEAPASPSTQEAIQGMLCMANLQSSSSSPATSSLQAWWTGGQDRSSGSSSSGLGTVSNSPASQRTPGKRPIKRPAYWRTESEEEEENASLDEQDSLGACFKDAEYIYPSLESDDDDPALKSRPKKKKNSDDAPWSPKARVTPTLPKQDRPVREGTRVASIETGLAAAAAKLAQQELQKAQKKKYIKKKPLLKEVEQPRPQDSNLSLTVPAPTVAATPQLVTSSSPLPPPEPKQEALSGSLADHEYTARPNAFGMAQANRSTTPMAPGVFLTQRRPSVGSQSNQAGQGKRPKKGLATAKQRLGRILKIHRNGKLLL", "test": "2-Oxoglutarate oxygenase assay panel, AlphaScreen assay", "format": "biochemical", "conditions": "± SEM"}, "[9]": {"target": "GAL2 (h) (Homo sapiens, UniProt O43603)", "test": "Cerep Express Panel, agonist radioligand", "format": "binding", "conditions": "read-out: % Inhibition of reference (10 µM)"}, "[10]": {"target": "A3 (h) (Homo sapiens, UniProt P0DMS8)", "sequence (P0DMS8 whole entry)": "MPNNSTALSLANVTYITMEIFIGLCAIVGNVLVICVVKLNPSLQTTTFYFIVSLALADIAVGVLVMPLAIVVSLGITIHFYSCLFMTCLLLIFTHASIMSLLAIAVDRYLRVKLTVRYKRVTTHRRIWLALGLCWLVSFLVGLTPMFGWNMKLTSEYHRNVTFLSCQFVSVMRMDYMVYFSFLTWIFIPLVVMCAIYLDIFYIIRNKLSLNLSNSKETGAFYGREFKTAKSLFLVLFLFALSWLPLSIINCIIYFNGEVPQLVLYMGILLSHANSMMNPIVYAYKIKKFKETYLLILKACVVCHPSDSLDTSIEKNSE", "test": "Cerep Express Panel, agonist radioligand", "format": "binding", "conditions": "read-out: % Inhibition of reference (10 µM)"}, "[11]": {"target": "mu (MOP) (h) (Homo sapiens, UniProt P35372)", "sequence (P35372 whole entry)": "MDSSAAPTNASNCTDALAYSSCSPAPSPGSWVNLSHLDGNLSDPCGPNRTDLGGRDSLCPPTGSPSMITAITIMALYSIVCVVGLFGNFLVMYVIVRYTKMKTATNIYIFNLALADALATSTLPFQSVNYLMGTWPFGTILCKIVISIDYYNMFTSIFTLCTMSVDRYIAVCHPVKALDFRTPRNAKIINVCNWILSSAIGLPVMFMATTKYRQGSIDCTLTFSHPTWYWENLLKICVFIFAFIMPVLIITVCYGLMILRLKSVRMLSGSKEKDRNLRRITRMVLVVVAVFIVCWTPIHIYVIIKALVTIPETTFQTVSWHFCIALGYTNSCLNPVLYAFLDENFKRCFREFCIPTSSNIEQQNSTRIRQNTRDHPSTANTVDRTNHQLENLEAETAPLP", "test": "Cerep Express Panel, agonist radioligand", "format": "binding", "conditions": "read-out: % Inhibition of reference (10 µM)"}, "[12]": {"system": "KDM5A and KDM5C (other KDM5 family members)", "test": "IF assay, HeLa cells overexpressing the other KDM5 family members", "format": "cell-based, human", "conditions": "overexpression IF assay, 24 hr, read-out: inhibitory concentration, other KDM5 family members", "excerpt": "(§1) The human cervical carcinoma cell line HeLa was obtained from the American Type Cultures Collection and maintained in Eagle's minimal essential media (Sigma-Aldrich) supplemented with 10% heat-inactivated fetal bovine serum (Life Technologies). Full-length cDNA for KDM5B (JARID1B, Q9UGL1, cDNA), KDM5C (JARID1C, P41229, IMAGE 5492114), KDM4B (JMJD2B, O94953, gift from ICR), KDM4C (JMJD2C, Q9H3R0, 8143862), KDM3A (JMJD1A, Q9Y4C1, 4823253), KDM2A (FBXL11, Q9Y2K7, 5534384), and KDM6B (JMJD3, O15054, cDNA) were amplified by PCR from either an MGC clone or a commercial cDNA source, or received as a gift from collaborators and cloned into pDONR-221 vector using Gateway BP reaction producing Gateway entry clones.\n(§2) […]. Mutations were introduced into full-length KDM Gateway entry clones using 15 cycles of the QuikChange II PCR protocol (Agilent Technologies). […]\n(§3) In brief, cells were transiently transfected with either the FLAG-tagged WT or mutant demethylase described above, using Lipofectamine 2000 (Life Technologies). […] After the DAPI-stained nuclei were automatically identified, a minimum threshold for anti-FLAG intensity was set so that only cells highly expressing the demethylase were analyzed. […]"}, "[13]": {"target": "beta 1 (h) (Homo sapiens, UniProt P08588)", "sequence (P08588 whole entry)": "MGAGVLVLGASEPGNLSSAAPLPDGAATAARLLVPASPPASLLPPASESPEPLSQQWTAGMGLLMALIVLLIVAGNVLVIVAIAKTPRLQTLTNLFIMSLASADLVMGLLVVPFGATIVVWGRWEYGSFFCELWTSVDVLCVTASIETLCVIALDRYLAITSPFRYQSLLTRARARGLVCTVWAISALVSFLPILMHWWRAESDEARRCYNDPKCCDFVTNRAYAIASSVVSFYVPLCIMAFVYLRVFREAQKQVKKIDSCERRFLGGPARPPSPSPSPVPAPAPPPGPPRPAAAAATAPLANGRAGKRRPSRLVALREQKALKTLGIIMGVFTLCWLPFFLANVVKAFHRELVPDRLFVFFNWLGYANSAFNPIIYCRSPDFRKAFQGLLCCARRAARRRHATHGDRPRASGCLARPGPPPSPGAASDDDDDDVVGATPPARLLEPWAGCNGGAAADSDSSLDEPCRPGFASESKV", "test": "Cerep Express Panel, agonist radioligand", "format": "binding", "conditions": "read-out: % Inhibition of reference (10 µM)"}, "[14]": {"target": "T2, norepinephrine transporter (h) (Homo sapiens, UniProt P23975)", "T2 construct": "CEREP", "T2 sequence (P23975 whole entry)": "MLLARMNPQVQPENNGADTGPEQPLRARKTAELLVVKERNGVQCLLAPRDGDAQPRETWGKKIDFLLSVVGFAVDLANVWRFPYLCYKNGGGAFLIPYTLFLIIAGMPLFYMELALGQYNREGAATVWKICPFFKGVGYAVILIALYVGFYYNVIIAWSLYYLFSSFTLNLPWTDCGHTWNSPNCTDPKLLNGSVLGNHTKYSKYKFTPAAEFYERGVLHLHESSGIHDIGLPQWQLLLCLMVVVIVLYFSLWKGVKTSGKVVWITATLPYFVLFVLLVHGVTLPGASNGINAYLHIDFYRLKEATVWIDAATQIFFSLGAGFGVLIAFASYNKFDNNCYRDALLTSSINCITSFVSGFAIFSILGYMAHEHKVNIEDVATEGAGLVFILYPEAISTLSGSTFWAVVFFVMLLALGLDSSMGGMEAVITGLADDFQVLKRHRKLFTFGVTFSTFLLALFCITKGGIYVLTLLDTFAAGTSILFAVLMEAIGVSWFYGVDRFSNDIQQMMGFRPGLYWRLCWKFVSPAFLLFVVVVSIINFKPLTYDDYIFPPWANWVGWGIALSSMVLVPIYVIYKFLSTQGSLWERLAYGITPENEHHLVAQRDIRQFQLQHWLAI", "test": "Cerep Express Panel, antagonist radioligand", "format": "binding", "conditions": "read-out: % Inhibition of reference (10 µM)"}, "[15]": {"target": "5-HT3 (h) (Homo sapiens, UniProt P46098)", "test": "Cerep Express Panel, antagonist radioligand", "format": "binding", "conditions": "read-out: % Inhibition of reference (10 µM)"}, "[16]": {"system": "other tested JmjC family members", "test": "IF assay, HeLa cells overexpressing other JmjC family members", "format": "cell-based, human", "conditions": "overexpression IF assay, 24 hr", "excerpt": "as §1, §2, §3"}, "[17]": {"target": "VPAC1 (VIP1) (h) (Homo sapiens, UniProt P32241)", "test": "Cerep Express Panel, agonist radioligand", "format": "binding", "conditions": "read-out: % Inhibition of reference (10 µM)"}, "[18]": {"system": "range of other multiple myeloma cell lines", "test": "Cell viability, other multiple myeloma cell lines", "format": "cell-based", "conditions": "treated for 7 days", "excerpt": "Figure S2 related to Figure 1 KDM5B Biochemical assay at different 2 -OG\nStem Cells (B) treated for 7 days. Data plotted represents the mean and standard deviation of four independent\n2OG Concentration IC50 (mM) Ki […]"}, "[19]": {"target": "A2A (h) (Homo sapiens, UniProt P29274)", "sequence (P29274 whole entry)": "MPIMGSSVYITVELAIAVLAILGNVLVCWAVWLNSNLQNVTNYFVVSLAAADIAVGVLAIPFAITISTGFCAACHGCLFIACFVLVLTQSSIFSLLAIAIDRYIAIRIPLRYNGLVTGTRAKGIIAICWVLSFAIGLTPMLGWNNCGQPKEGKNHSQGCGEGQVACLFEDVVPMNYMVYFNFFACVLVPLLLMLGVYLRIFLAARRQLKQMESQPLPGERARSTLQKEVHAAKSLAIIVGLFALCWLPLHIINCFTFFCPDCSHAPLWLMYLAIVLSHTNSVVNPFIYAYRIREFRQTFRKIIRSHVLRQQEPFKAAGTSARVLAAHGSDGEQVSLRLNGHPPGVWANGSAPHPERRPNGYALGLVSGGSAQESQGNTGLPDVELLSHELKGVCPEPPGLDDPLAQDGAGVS", "test": "Cerep Express Panel, agonist radioligand", "format": "binding", "conditions": "read-out: % Inhibition of reference (10 µM)"}, "[20]": {"target": "MT1 (ML1A) (h) (Homo sapiens, UniProt P48039)", "test": "Cerep Express Panel, agonist radioligand", "format": "binding", "conditions": "read-out: % Inhibition of reference (10 µM)"}}, "note": "Entries after “also recorded” stand apart in the source; their conditions may differ.", "data": [{"smiles": "CCN(CCN(C)C)C(=O)CNCc1cc(C(N)=O)ccn1", "note": "[KDOAM-25]", "values": [{"measurement": "% Inhibition of reference (10 µM)", "setting": "[1]", "result": -2, "unit": "%"}, {"measurement": "intrinsic clearance, in words", "setting": "[2]", "result": "low intrinsic clearance"}, {"measurement": "microsomal CLint", "setting": "[2]; read-out: MLM Clint", "result": 8.42, "unit": "µL/min/mg"}, {"measurement": "inhibition at 10 µM", "setting": "[3]", "result": -3, "unit": "%"}, {"measurement": "inhibition at 10 µM", "setting": "[4]", "result": 1, "unit": "%"}, {"measurement": "inhibition at 10 µM", "setting": "[5]", "result": -8, "unit": "%"}, {"measurement": "inhibition at 10 µM", "setting": "[6]", "result": 10, "unit": "%"}, {"measurement": "IC50", "setting": "[7]", "result": "≥ 4.8", "unit": "µM"}, {"measurement": "pIC50 PHF8", "setting": "[8]", "result": "5.0 ± 0.057"}, {"measurement": "inhibition at 10 µM", "setting": "[9]", "result": -4, "unit": "%"}, {"measurement": "inhibition at 10 µM", "setting": "[10]", "result": -6, "unit": "%"}, {"measurement": "inhibition at 10 µM", "setting": "[11]", "result": -2, "unit": "%"}, {"measurement": "IC50", "setting": "[12]", "result": "> 100", "unit": "µM"}, {"measurement": "inhibition at 10 µM", "setting": "[13]", "result": 5, "unit": "%"}, {"measurement": "inhibition at 10 µM", "setting": "[14]", "result": -6, "unit": "%"}, {"measurement": "inhibition at 10 µM", "setting": "[15]", "result": 8, "unit": "%"}, {"measurement": "cellular activity on other tested JmjC family members", "setting": "[16]", "result": "no cellular activity; also recorded: no effect"}, {"measurement": "inhibition at 10 µM", "setting": "[17]", "result": -12, "unit": "%"}, {"measurement": "effect on viability of other multiple myeloma cells", "setting": "[18]", "result": "does not decrease cell viability; also recorded: did not show the same decrease in viability"}, {"measurement": "inhibition at 10 µM", "setting": "[19]", "result": -2, "unit": "%"}, {"measurement": "inhibition at 10 µM", "setting": "[20]", "result": 5, "unit": "%"}]}]}
